Like-named read-outs stand apart in the source and are kept apart here.
Legend:
[1] = molecular target: T1, hKv7.2 and hKv7.3 (Kv7.2/7.3) (Homo sapiens, UniProt O43525+O43526); assay: Modulation of Kv7.2/7.3 conductance, automated electrophysiology (IonWorks Barracuda, population patch clamp) in HEK293 cells; format: cell-based; parameters: Voltage Shift ([…]V0.5), Mean: unit not given here; details: for Maximal Shift (efficacy) / Slope / EC50: 4-parameter logistic fit of voltage shift data; for EC50: read-out: EC50 (potency of V0.5 shift)
T1 construct: host or cells: HEK293
Description: Modulation of Kv7.2/7.3 Conductance by Kv7 Potentiators in a Mammalian Expression System
The potency and efficacy of Kv7 potentiators is assessed by automated electrophysiology on the IonWorks Barracuda (Molecular Devices) platform using the population patch clamp mode of the instrument.
Cell Culture: HEK293 cells stably expressing hKv7.2 (under tetracycline induction) and hKv7.3 (Catalog #CT6147, Charles River) are used for these studies. Cells are maintained in a Dulbecco's modified Eagle's medium/nutrient mixture Ham's F-12 (Sigma-Aldrich) supplemented with 5% tetracycline-screened fetal bovine serum (Sigma-Aldrich), 15 mM HEPES, 500 μg/mL G418, 100 U/mL penicillin, 100 μg/mL streptomycin, […] L-glutamine, 100 μg/mL zeocin, and 5 μg/mL blasticidin. Expression of hKv7.2 is induced by addition of 1 μg/mL doxycycline 24 h prior to recordings.
Cells are cultured in Corning T-150 flasks to a confluence of 85%-95%. At the start of an experiment, cells are washed once with D-PBS without calcium and magnesium and then dissociated by incubating in 3 ml of 0.25% trypsin for 8 min at 37° C. Cells ware resuspended in media, triturated gently, and centrifuged for 4 min at 1,000 rpm. Cells are resuspended in external solution to a final concentration of 2.5-3.5M cells/mL.
Solutions: External solution w is composed of (in mM): 140 NaCl, 5 KCl, 2 CaCl2, 1 MgCl2, 10 HEPES, 10 Glucose, pH 7.4. Internal solution is composed of (in mM): 90 K-gluconate, 40 KCl, 3.2 EGTA, 3.2 MgCl2, 5 HEPES, pH 7.25. The membrane perforating agent amphotericin B is prepared daily as a 27 mg/mL stock solution in DMSO and then added to the internal solution to a final concentration of 0.1 mg/mL. Test article dilutions are prepared in 384-well plates from 10 mM DMSO stock solutions and diluted using acoustic dispensing (Labcyte ECHO®), such that final DMSO concentrations are 0.1%.
Electrophysiological Recordings: Resuspended cells are placed on the IONWORKS® BARRACUDA™ (IWB) instrument, external solution is added to a 384-well patch plate, and a hole test is performed to determine blocked wells and offset voltages. Cells are then added to the patch plate (9 μL per well) by the instrument. Two seal tests are performed prior to introducing the perforating agent amphotericin in the internal solution and allowing approximately 8 min to obtain electrical access, which is verified by a third seal test. The command voltage protocol consists of a family of 1 sec voltages steps from −80 mV to +40 mV from a holding potential of −80 mV and is applied prior to (baseline) and 6 min after test article addition.
Data Analysis: Data are acquired and leak subtracted using IWB software. Current amplitudes during the last 10 msec of each voltage step are averaged and exported. Further analysis is performed using Microsoft Excel and GraphPad Prism. Current amplitude is converted to conductance (G) by the following formula: G=I/(V−Ek) where I=current, V=step potential, Ek=potassium reversal potential (−84 mV). Conductance in the presence of test article is normalized to the baseline conductance at +40 mV for the same well. Conductance-voltage (G−V) curves are fitted with the Boltzmann equation y=Bottom+(Top−Bottom)/(1+EXP((Vm−V0.5/k)).
Fitting a 4-parameter logistic equation to the data may be used to determine the potency (EC50) and efficacy (maximal shift) for each test compound.

[2] = test system: motor neurons derived from ALS patient iPSC line with pathogenic mutation in TARDBP; assay: Optopatch excitability assay in motor neurons derived from ALS patient iPSC line (TARDBP mutation); format: cell-based, human; details: Homo sapiens, iPSC, TARDBP line, blue LED 5.1 mW/cm^2, mean, read-out: EC50, inhibition of excitability (action potential frequency)
From the text: (§1) Optopatch Excitability Assay for Example 1 in Motor Neurons Derived From ALS Patient iPSC Lines
(§2) Altered excitability of cortical neurons and lower motor neuron is an important factor in the pathophysiology of ALS (See, for example, K. Kanai, et. al., J Neurol Neurosurg Psychiatry, 83, 734-738 (2012); P. Menon, et. al., Eur Neurol., 24, 816-824 (2017)). All-optical electrophysiology (“Optopatch”) was used to evaluate excitability in cultured motor neurons derived from iPSC lines from two ALS patients with different pathogenic mutations.
(§3) Cell Culture: The two iPSC lines are derived from one patient with a pathogenic mutation in TARDBP and one patient with a pathogenic repeat expansion mutation in C9orf72, respectively. Motor neurons are generated from these lines by a 2D differentiation method adapted from the dual SMAD inhibition neuronal patterning protocol (See S. M. Chambers, et. al., Nat Biotechnol., 27, 275-280 (2009)) by inclusion of motor neuron morphogens. Differentiation is verified by visual inspection, karyotyping and staining for beta-III-tubulin and the nuclear motor neuron marker ISL1. Neurons are cultured on a monolayer of mouse glia in mTeSR (Stem Cell Technologies), supplemented with 10 ng/mL BDNF. Forty-eight hours prior to imaging, 100 nM trans-retinal was added to the medium.
(§4) Transduction with Optopatch vectors: At 15 days in vitro, cultured motor neurons are transduced with a lentiviral vector to drive the co-expression of the actuator CheRiff-mOrange2 and the voltage indicator QuasAr3-Citrine (for details see D. R. Hochbaum, et. al., Nat. Methods, 11, 825-833 (2014)). Forty-eight hours prior to imaging, 100 nM trans-retinal was added to the medium.
Solutions: Recordings are performed in Brainphys™ imaging buffer with 3 mM potassium. The gap junction blocker 2-aminoethoxydiphenyl borate (50 μM) is added to eliminate electrical coupling between cells, and NBQX (10 μM), gabazine (20 μM), and AP5 (25 μM) were used to block synaptic transmission.
Optopatch Recordings: Five days after transduction, Optopatch imaging is performed on a custom, ultra-widefield fluorescence microscope at RT. Motor neurons are illuminated with red laser excitation (200 W/cm^2; 635 nm) to monitor changes in QuasAr fluorescence and blue LED excitation (0-127 mW/cm^2, 470 nm) to depolarize the cell membrane with CheRiff. A custom blue light stimulus protocol is used consisting of: i) 2 sec of red illumination only to monitor spontaneous activity, ii) 5×500 msec steps of increasing blue light intensity and iii) 2×2 sec linearly increasing blue light ramps, each with a different maximum blue intensity. Optopatch data are recorded using a Hamamatsu ORCA-Flash 4.0 sCMOS camera with a 1 kHz frame rate. The field of view size is 4 mm×0.5 mm. Custom control software written in MATLAB is used to control illumination protocols and record all movies. To examine acute effects of Kv7.2/7.3 potentiators, neurons are incubated with test compound for 15 min prior to imaging.
(§5) Data Analysis: Image segmentation analysis is performed using temporal Principle Component Analysis and spatial-temporal Independent Component Analysis to isolate individual neurons. A spike-finding algorithm is used to find action potentials, and data are analyzed for compound effects on mean firing rate, adaptation, rheobase and action potential waveform shape by comparing to vehicle controls (for detail, see C. A. Werley, et. al., Curr. Protoc. Pharmacol., 78, 11.20.1-11.20.24. (2017)).
Subjected to the protocol described above, the primary effect of the Example 1 is on the action potential firing rate in response to low intensity blue light illumination.
Fitting a 4-parameter logistic equation to the data may be used to determine the potency (EC50) of the effect of Example 1 on action potential frequency. Results are shown in Table 1 for two separate differentiation efforts each for the lines derived from the patients carrying the TARDBP and C9orf72 mutations.

[3] = test system: motor neurons derived from ALS patient iPSC line with pathogenic repeat expansion mutation in C9orf72; assay: Optopatch excitability assay in motor neurons derived from ALS patient iPSC line (C9orf72 repeat expansion); format: cell-based; details: Homo sapiens, read-out: EC50, inhibition of excitability (action potential frequency)
From the text: as §1, §2, §3, §4
Solutions: Recordings are performed in Brainphys™ imaging buffer with 3 mM potassium. […]
Optopatch Recordings: Five days after transduction, Optopatch imaging is performed on a custom, ultra-widefield fluorescence microscope at RT. Motor neurons are illuminated with red laser excitation (200 W/cm^2; 635 nm) to monitor changes in QuasAr fluorescence and blue LED excitation (0-127 mW/cm^2, 470 nm) to depolarize the cell membrane with CheRiff. […] Optopatch data are recorded using a Hamamatsu ORCA-Flash 4.0 sCMOS camera with a 1 kHz frame rate. […]
as §5, with “(2017)). […]” for “(2017)).”

peripheral axons = assay: Threshold tracking of peripheral nerve excitability in anesthetized rats; format: in vivo; details: rat, dosed 45 min after Example 1 at 30 mg/kg
Description: Threshold Tracking to Measure the Effects of Example 1 at 3.10 and 30 mg/kg IP on Peripheral Nerve Excitability
Threshold tracking is a non-invasive technique that allows measurement of the excitability properties of peripheral axons by providing information about their membrane potential and ion channel function.
16 male Wistar rats from Charles River, weighing between 307-446 g ware used. Animals are group housed with standard housing conditions (4 per cage, 07:00 h to 19:00 h light phase, constant temperature (21° C.) and humidity, and free access to food and water, as well as environmental enrichment).
Rats are anesthetized with isoflurane (2-2.5%, O2 at 0.5 L/min) and then placed on their back on a heating pad to keep the tail temperature above 32° C. The placement of the ring electrodes are marked out and the marked sections of the tail are scraped with a blade to remove hair and the top layer of skin. The sites are cleaned with water and dried, allowing fora good conduction between the skin and the sticky electrodes.
A sticky ring stimulating electrode (+ve anode) is wrapped around the foot. A second sticky ring stimulating electrode (−ve cathode) is wrapped 1.5 cm from the base of the tail. A needle recording electrode is placed just off center on the top of the tail, 6 cm distal to the stimulating cathode at the base of the tail. A needle reference electrode is placed just off center on the top of the tail, 2 cm distal to the recording electrode. A sticky ground electrode is wrapped around the tail 2 cm proximal from the recording electrode.
• Start the Multitrack program (description below) and Spike. • Record 15 min of stable baseline • After the 15 min, dose with Example 1 or HEC • Take blood spot for PK at the following: • 10 min post dose • 20 min post dose • 30 min post dose • 40 min post dose • 45 min after IP (intraperitoneal) dosing with Example 1, dose XE-991 (XE-991 is a commercially available compound that blocks KCNQ potentiator effects in a formalin assay in vivo—see Y. Zheng, et al., “Activation of peripheral KCNQ channels relieves gout pain,” Pain, 156 (2015) 1025-1035; and R. Zaczek, et al., “Two New Potent Neurotransmitter Release Enhancers, 10,10-Bis(4-Pyridinylmethyl)-9(10H)-Anthracenone and 10,10-Bis(2-Fluoro-4-Pyridinylmethyl)-9(10H)-Anthracenone: Comparison to Linopirdine” The Journal of Pharmacology and Experimental Therapeutics, 285:724-730, 1998. • (XE-991 is only dosed after Example 1 at 30 mg/kg) • Take blood spot for PK at the following: • 10 min post dose (55 min post Example 1 administration) • 20 min post dose (65 min post Example 1 administration) • 30 min post dose (75 min post Example 1 administration) • 40 min post dose (85 min post Example 1 administration)
In threshold tracking assay to measure the excitability properties of peripheral axons studies in rat, compound is administered by IP at 3, 10 or 30 mg/kg using 1% hydroxyethylcellulose: 0.25% polysorbate 80:0.05% antifoam:purified water (HEC) formulation. Dry blood spots (DBS) are collected around 10, 20, 30 and terminal 40 min post-dose. DBS samples are dried at RT for around 2 h. Brain samples are obtained at terminal time point and frozen until analysis. DBS samples are shipped and stored at RT.

[4] = 10 μM, difference from control in voltage at half-maximal conductance

SMILES | Voltage Shift ([…]V0.5), Mean ([1]; 0.0005 μM) | Voltage Shift ([…]V0.5), Mean ([1]; 0.0015 μM) | Voltage Shift ([…]V0.5), Mean ([1]; 0.005 μM) | Voltage Shift ([…]V0.5), Mean ([1]; 0.01 μM) | Voltage Shift ([…]V0.5), Mean ([1]; 0.04 μM) | Voltage Shift ([…]V0.5), Mean ([1]; 0.12 μM) | Voltage Shift ([…]V0.5), Mean ([1]; 0.37 μM) | Voltage Shift ([…]V0.5), Mean ([1]; 1.11 μM) | Voltage Shift ([…]V0.5), Mean ([1]; 3.33 μM) | Voltage Shift ([…]V0.5), Mean [1, 4] | Maximal Shift (efficacy) [1] | Slope [1] | EC50 [1] | EC50 ([2]; Diff 1) | EC50 ([2]; Diff 2) | EC50 ([3]; Diff 1, blue LED 5.1 mW/cm^2, mean) | EC50 ([3]; Diff 2, blue LED 5.1 mW/cm^2, mean) | reversal of the Example 1 induced increase in absolute threshold (peripheral axons)
O=C(NCc1ccnc(OCC(F)(F)F)c1)NCC(O)C1(C(F)(F)F)CC1 (single isomer, unassigned) [Example 2, (+)-1-[2-hydroxy-2-[1-(trifluoromethyl)cyclopropyl]ethyl]-3-[[2-(2,2,2-trifluoroethoxy)-4-pyridyl]methyl]urea and (−)1-[2-hydroxy-2-[1-(trifluoromethyl)cyclopropyl]ethyl]-3-[[2-(2,2,2-trifluoroethoxy)-4-pyridyl]methyl]urea] | 6.1 | 4.1 | 5.0 | 4.1 | 7.4 | 2.9 | −1.9 | −10.6 | −23.0 | −25.8 | −28 | 1.3 | 1100 nM |  |  |  |  | 
O=C(NCCC1(C(F)(F)F)CC1)NCc1ccnc(OCC(F)(F)F)c1 [Example 3, 1-[[2-(2,2,2-trifluoroethoxy)-4-pyridyl]methyl]-3-[2-[1-(trifluoromethyl)cyclopropyl]ethyl]urea] | 3.9 | 0.1 | 1.9 | −1.8 | −4.4 | −11.0 | −19.6 | −21.9 | −23.9 | −21.9 | −23 | 1.1 | 100 nM |  |  |  |  | 
CCOC(=O)Nc1ccc(NCc2ccc(F)cc2)nc1N [Flupirtine, flupirtine, reference compound] |  |  |  |  |  |  |  |  |  |  |  |  |  | 1150 nM | 840 nM | 1660 nM | 1350 nM | 
O=C1c2ccccc2C(Cc2ccncc2)(Cc2ccncc2)c2ccccc21 [XE-991, reference compound] |  |  |  |  |  |  |  |  |  |  |  |  |  |  |  |  |  | able to reverse this increase
